Data from US20090286808A1, “Opsin Stabilizing Compounds and Methods of Use” (University of Florida Research Foundation, Inc., priority 2006, published 2009).
“Also recorded” adds a separate entry of the source. Where two headings read alike, the source gives them in different places. Values belong to the molecule of their own block, whether it stands above or below them.

What was measured:
[1] = biological target: T1, P23H opsin (Bos taurus, UniProt P02699, P23H); assay: Yield of folded P23H rhodopsin purified from P23H opsin expressing HEK293 cells, by spectrophotometry; format: cell-based, bovine; conditions: for % Increase in P23H Yield (Table 1): compound concentration 100 μM, compared to control; for increase in the yield of folded P23H rhodopsin: P23H opsin expressing cells treated with compound, versus no compound; for yield of folded P23H rhodopsin, in words: versus absence of the compound; for increase in P23H pigment over control: compound present during P23H opsin expression, 48 hours, β-ionone 10 μM
T1 construct: expressed in transfected cells
Protocol: Wild-type (WT) and P23H expressing stable cell lines were generated in a commercially available cloning system, the Flp-In T-Rex System™ (Invitrogen). The stable cells were grown in DMEM high glucose media supplemented with 10% (vlv) fetal bovine serum, antibiotic antimycotic solution, […] blasticidin and hygromycin at 37° C. in presence of 5% CO2. For all the experiments the cells were allowed to reach confluence and were induced with 1 μg/ml tetracycline after change of media and then compounds were added. The plates were incubated for 48 h after which the cells were harvested.
For purification of rhodopsin 100 μM […] was added to a confluent plate of P23H cells after induction. […] Rhodopsin purification was essentially as described below for opsin purification with minor modifications. Briefly, the cells were harvested and washed with PBS followed by incubation with 50 μM 11-cis-retinal for 1.5 h at 4° C. The cells were then washed three times with PBS to remove excess retinal. Lysis, column binding and elution from the column were same as in case of opsin purification.
Stable cell lines expressing the P23H opsin were generated using Flp-In T-Rex system (Invitrogen) in HEK293 cell line. To create plasmids for constructing stable cell lines, an EcoRI-NotI fragment from the wild-type or P23H mutant synthetoc bovine opsin gene in pMT4 (see Kaushal et al., Biochemistry, Vol. 33, pp. 6121-6128 (1994) was combined with the large EcoRI-NotI fragment of pcDNA5/FRT/TO (Invitrogen). The resulting plasmids contain opsin under the control of a tetracycline-inducible human cytomegalovirus promoter and a flippase recognition sequence (FRT) for site sepecific recombination at the unique chromosomal FRT site of HEK293 Flp-In T-Rex. The opsin sequence in these plasmids was verified by PCR cycle sequencing. To construct stable cell lines, HEK293 Flp-In T-Rex cells were co-transfected with the flippase vector pOG44 (from Invitrogen) and the pcDNA5/FRT/TO vector or its derivatives containing the opsin gene. Stable recombinants were obtained by selecting for cells expressing resistance to hygromycin due to plasmid recombination at the FRT site. After the initial selection, the stable cell lines were routinely grown in the same media as HEK293 Flp-In T-rex, except that […].
The stable cells were grown in DMEM high glucose media supplemented with 10% (v/v) fetal bovine serum, antibiotic/antimycotic solution, 5 μg/ml blasticidin and hygromycin at 37° C. in presence of 5% CO2. For all the experiments the cells were allowed to reach confluence and were induced with 1 μg/mi tetracycline after change of media and then compounds were added. The plates were incubated for 48 h after which the cells were harvested.
The effect of the compounds on P23H rhodopsin yield was assessed by purifying and spectrophotormetrically determining the yield. After 48 hours of induction and treatment with compounds the cells were harvested and rhodopsin purified essentially as described in Noorwez et al. (2004). For purification of rhodopsin 100 μM NCI-45012 was added to a confluent plate of P23H cells after induction. […] Rhodopsin purification was essentially as described earlier for opsin purification with minor modifications. Briefly, the cells were harvested and washed with PBS followed by incubation with 50 μM 11-cis-retinal for 1.5 hours at 4° C., The cells were then washed three times with PBS to remove excess retinal. Lysis, column binding and elution from the column were the same as for opsin purification.
Compounds identified by computational modeling (see Example 1) were screened as described above. The effect of compounds on the yield of mutant rhodopsin was determined by spectrophotometry. […]

[2] = biological target: T2, WT opsin (Bos taurus, UniProt P02699); format: biochemical, bovine; conditions: compound without 11-cis-retinal chromophore, in vitro
Protocol: The cells were washed after 48 h and rhodopsin purified without treating the cells with 11-cis-retinal under conditions that yield only folded rhodopsin (Noorwez et al. (2004)).

[3] = biological target: T2, WT opsin; assay: Opsin regeneration and retinal competition: rate of 500 nm pigment formation of purified WT opsin with 11-cis-retinal; format: biochemical, bovine
Protocol: WT opsin producing cells were grown in 10 cm culture plates and induced for opsin production. After 48 hour of induction the cells were harvested and washed with PBS (10 mM sodium phosphate, 130 mM NaCl, pH 7.2). The cells were lysed in PBSD (PBS containing 1.0% DM and 1× protease inhibitor cocktail) for 1 hour and the lysate was added to 1D4 coupled sepharose beads and incubated for 1 hour at 4° C. The beads were washed 5 times in PBSD and twice with 10 mM sodium phosphate buffer containing 0.5% DM, pH 6.0. The bound WT opsin was eluted with a competing peptide representing the last 18 amino acids of rhodopsin in the latter buffer for 1 hour.
All the opsin regeneration and competition assays were performed under dim red light in a Cary 50 spectrophotometer (Varian) equipped with temperature control. 25 μM purified WT opsin was mixed with 50 μM 11-cis retinal and scanned every two minutes in the range of 250-650 nm until no more rhodopsin was regenerated. Similarly opsin was mixed with compound SN10011 (2 or 5 mM) and allowed to sit for 10 minutes on ice. […] The reactions were conducted in 100 μl total volume where the compounds were provided in 2 μl solution to 98 μl opsin solution. The temperature was maintained at 20° C.

[4] = biological target: T1, P23H opsin; format: cell-based, bovine
Protocol: (§1) The P23H opsin producing cells were grown in 6-well plates and induced to produce P23H opsin. The DMSO solutions of the NCI compounds were individually added to separate wells at a final concentration of 100 μM. After incubation for 48 h cells were collected and washed with PBS. The cells were then lysed in PBSD by constantly rotating for 1 h at 4° C. The tubes were spun at 36000 rpm for […] and supernatant collected in fresh tubes. Total protein was quantified using a commercially available assay system, the DC protein assay (Biorad). Equal amounts of protein (10 μg) from different samples was loaded on 4-20% SDS polyacrylamide gels and total opsin quantified by western blotting.
as §1, with “the test” for “the NCI”, “1 hour” for “1 h”, “at 36,000” for “at 36000”, “using” for “using a commercially available assay system, the”, “blotting. Proteins were separated on SDS-PAGE gels and western blotted as described in Noorwez et at (2004).” for “blotting.”
Thus, a higher fraction of P23H molecules attain a stable conformation. […] This might also explain the difference in the degree of rescue obtained with these two pharmacological chaperones.

[5] = biological target: T1, P23H opsin; assay: Yield of folded P23H rhodopsin purified from P23H opsin expressing HEK293 cells, by spectrophotometry; format: cell-based, bovine; conditions: 48 h, no 11-cis-retinal
[6] = test system: P347S (Class I) mice; conditions: cited from earlier work
[7] = test system: T17M (Class II) mice; conditions: cited from earlier work
[8] = in the presence of 11-cis-retinal

Compound: Cc1cc([N+](=O)[O-])ccn1 [Compound 4, 2-methyl-4-nitro-pyridine]
- % Increase in P23H Yield (Table 2) [1]: 25 ± 8%
- % Increase in P23H Yield (Table 1) [1]: 24%

Compound: CC(=O)c1c(C)n[nH]c1C [Compound 1, 1-(3,5-dimethyl-1H-pyrazol-4-yl)ethanone]
- formation of a 500 nm absorbing pigment with purified WT opsin ([2]; listed as SN10011): No pigment was formed; also recorded: No 500 nm absorbing pigment was generated
- inhibition of opsin regeneration (pigment formation with 11-cis-retinal), in words ([3]; listed as SN10011): significant effect on inhibition of pigment formation; also recorded: inhibited
- % Increase in P23H Yield (Table 2) [1]: 30 ± 5%
- increase in the yield of folded P23H rhodopsin [1]: 30%
- % Increase in P23H Yield (Table 1) [1]: 31%
- yield of folded P23H rhodopsin, in words [1]: increased yield of folded rhodopsin

Compound: O=[PH](O)c1ccccc1 [Compound 3, phenyl-phosphinic acid]
- % Increase in P23H Yield (Table 2) [1]: 40 ± 3%
- % Increase in P23H Yield (Table 1) [1]: 32%

Compound: C[C@@H]1CCC[C@H](C)C1 [cis-1,3-dimethylcyclohexane]
- inhibition of opsin regeneration (pigment formation with 11-cis-retinal), in words [3]: much weaker inhibitor of opsin regeneration
- increase in the yield of folded P23H rhodopsin [1]: 15%
- yield of folded P23H rhodopsin, in words [1]: increased yield of folded P23H rhodopsin

Compound: Nn1nnc2ccccc21 [NSC 114498, 1H-1,2,3-benzotriazol-1-amine]
- % Increase in P23H Yield (Table 2) [1]: 30 ± 6%

- increase in yield of total opsin relative to no compound ([4]; P23H cells, β-ionone): 30%
- increase in P23H pigment over control [1]: 2.5 fold
Compound: CC(=O)/C=C/C1=C(C)CCCC1(C)C [β-ionone]
- formation of a 500 nm absorbing pigment with purified WT opsin [2]: does not form a light absorbing pigment; also recorded: did not form a 500 nm absorbing pigment; also recorded: no 500 nm absorbing pigment was formed
- inhibition of opsin regeneration (pigment formation with 11-cis-retinal), in words [3]: inhibited opsin regeneration in a dose dependent manner
- pigment from P23H HEK cells treated with compound, purified without 11-cis-retinal treatment [5]: No pigment was detected; also recorded: No pigment was observed; also recorded: No pigment was generated

Compound: O=C1NC(CCO)C(=O)NC1CCO (centres unmarked) [Compound 5, 3,6-bis-(2-hydroxyethy)-piperazine-2,5-dione]
- % Increase in P23H Yield (Table 2) [1]: 30 ± 10%
- % Increase in P23H Yield (Table 1) [1]: 15%

Compound: CC(C)N(CC#N)C(C)C [Compound 6, diisopropylaminoacetonitrile]
- % Increase in P23H Yield (Table 2) [1]: 25 ± 3%
- % Increase in P23H Yield (Table 1) [1]: 28%

Compound: N#Cc1cn(Cc2ccco2)c(=O)[nH]c1=O [Compound 2, 1-furan-2-ylmethyl-2,4-dioxo-1,2,3,4-tetrahydro-pyrimidine-5-carbonitrile]
- % Increase in P23H Yield (Table 2) [1]: 40 ± 7%
- % Increase in P23H Yield (Table 1) [1]: 43%

Compound: CC1=C(/C=C/C(C)=C/C=C/C(C)=C/C=O)C(C)(C)CCC1 [11-cis-retinal, reference compound]
- increase in yield of total opsin [4, 8]: 2.4 fold
- yield of folded rhodopsin [4, 8]: 2.6 fold
- effectiveness of 11-cis-retinal relative to β-ionone in increasing cellular yields of P23H rhodopsin [1]: about 2 fold
- increase in P23H pigment over control [1]: 5 fold

- % Increase in P23H Yield (Table 2) [1]: 40 ± 9%
Compound: Cn1cc(C(N)=O)ccc1=N [NSC 66688, 6-imino-1-methyl-1,6-dihydro-3-pyridinecarboxamine]

- % Increase in P23H Yield (Table 2) [1]: 20 ± 5%
Compound: N#Cc1ccc2c(c1)OCO2 [NSC 27009, 3,4-Methylenedioxybenzonitrile]

- % Increase in P23H Yield (Table 2) [1]: 29 ± 5%
Compound: Oc1ccccc1C=Nn1cnnc1 [NSC 121968, 4-Salicylideneamino-1,2,4-triazol]

Compound: CCCCCCCCCCCCCCCC(=O)OC/C=C(C)/C=C/C=C(C)/C=C/C1=C(C)CCCC1(C)C [vitamin A palmitate]
- changes in retinal degeneration on treatment [6]: no significant changes
- decrease in outer nuclear layer (ONL) thickness in treated animals [7]: 24%
- decrease in the rate of decline in electroretinogram (ERG) a- and b-wave amplitudes [7]: 40-45%
